Structures can show the parent of a compound that is named as a salt. A value given as a limit tells only on which side of the number the result lay.

IC50 data for 26 compounds are collected here from patent US20160251341A1, “SUBSTITUTED TRIAZOLE COMPOUNDS AS SERINE PROTEASE INHIBITORS” (Verseon Corporation, priority 2015, published 2016).

The target of this test is T1, Human thrombin (Homo sapiens, UniProt P00734).
T1 construct: purchased Haematologic Technologies Inc
The test is described as follows: Thrombin protease inhibition assay (chromogenic substrate S-2238). Type of test: biochemical. The note with it: 3 nM human thrombin, 125 μM S-2238, 10 min pre-incubation, RT. How it is done: The thrombin activity reported herein (e.g., Table A) was obtained as follows. Human thrombin was obtained from Haematologic Technologies Inc. The chromogenic substrate S-2238 was obtained from DiaPharma. Thrombin was assayed in buffer containing 0.05 M Tris (pH 7.4), 0.015 M NaCl and 0.01% PEG-8000. The final concentration of enzyme used was 3 nM thrombin. The final concentration of substrate used was 125 μM S-2238 for thrombin. All assays were performed in 96-well microtiter plates at room temperature (RT). The enzyme and inhibitor were pre-incubated for 10 minutes then substrate was added and read at 405 nm in a SpectraMax Plus Spectrophotometer (Molecular Devices). Inhibitor IC50 values were determined by adding test compound as ten point, three-fold serial dilutions in buffer solution, as known in the art. The plate was read at 10 minutes after substrate addition. The IC50 was calculated by plotting the percent (%) inhibition against compound concentration and fitting the data to a constrained four parameter sigmoidal curve, as known in the art.

In the case of `Nc1nc(C2=C(OCc3ccc(Cl)s3)CCCC2)n[nH]1` [Entry 29, 3-2-[(5-chlorothiophen-2-yl)methoxy]cyclohex-1-en-1-yl-1H-1,2,4-triazol-5-amine], the IC50 was no less than 100 µM. Turning to `COc1ccccc1C(=O)n1nc(C2CCCN2C(=O)OC(C)(C)C)nc1NCc1ccc(Cl)s1` (centres unmarked) [Entry 68, tert-butyl 2-(5-[(5-chlorothiophen-2-yl)methyl]amino-1-(2-methoxybenzoyl)-1H-1,2,4-triazol-3-yl)pyrrolidine-1-carboxylate], the IC50 was in the range of 0.1 to 1 µM. `O=C(c1ccccc1)n1nc(C2CCNCC2)nc1NCc1ccc(Cl)s1` [Entry 15, 1-benzoyl-N-[(5-chlorothiophen-2-yl)methyl]-3-(piperidin-4-yl)-1H-1,2,4-triazol-5-amine hydrochloride] registered an IC50 of no more than 0.1 µM. As for `COc1ccccc1C(=O)n1nc(C2CN(S(=O)(=O)C3CCCCC3)C2)nc1NCc1ccc(Cl)s1` [Entry 63, N-[(5-chlorothiophen-2-yl)methyl]-3-[1-(cyclohexanesulfonyl)azetidin-3-yl]-1-(2-methoxybenzoyl)-1H-1,2,4-triazol-5-amine], the figure is no more than 0.1 µM. `COc1ccccc1C(=O)n1nc(C2CCCO2)nc1NCc1ccc(Cl)s1` (centres unmarked) [Entry 41, N-[(5-chlorothiophen-2-yl)methyl]-1-(2-methoxybenzoyl)-3-(oxolan-2-yl)-1H-1,2,4-triazol-5-amine] gave an IC50 of no more than 0.1 µM. As for `CC(C)(C)OC(=O)N1CC(c2n[nH]c(NCc3ccc(Cl)s3)n2)C1` [Entry 72, tert-butyl 3-(5-[(5-chlorothiophen-2-yl)methyl]amino-1H-1,2,4-triazol-3-yl)azetidine-1-carboxylate], the figure is no less than 100 µM; as for `COc1ccccc1C(=O)n1nc(C2CCNCC2)nc1NCc1ccc(Cl)s1` [Entry 43, N-[(5-chlorothiophen-2-yl)methyl]-1-(2-methoxybenzoyl)-3-(piperidin-4-yl)-1H-1,2,4-triazol-5-amine], no more than 0.1 µM; as for `COc1ccccc1C(=O)n1nc(C2CCN(C(=O)OC(C)(C)C)CC2)nc1NCc1ccc(Cl)s1` [Entry 74, tert-butyl 4-(5-[(5-chlorothiophen-2-yl)methyl]amino-1-(2-methoxybenzoyl)-1H-1,2,4-triazol-3-yl)piperidine-1-carboxylate], no more than 0.1 µM.

`COc1ccccc1C(=O)n1nc(C2CN(S(C)(=O)=O)C2)nc1NCc1ccc(Cl)s1` [Entry 54, N-[(5-chlorothiophen-2-yl)methyl]-3-(1-methanesulfonylazetidin-3-yl)-1-(2-methoxybenzoyl)-1H-1,2,4-triazol-5-amine] showed an IC50 of no more than 0.1 µM.

In turn, `Clc1ccc(CNc2nc(C3CCCO3)n[nH]2)s1` (centres unmarked) [Entry 60, N-[(5-chlorothiophen-2-yl)methyl]-3-(oxolan-2-yl)-1H-1,2,4-triazol-5-amine] registered an IC50 of no less than 100 µM. In the case of `COc1ccccc1C(=O)n1nc(C2CCOCC2)nc1NCc1ccc(Cl)s1` [Entry 40, N-[(5-chlorothiophen-2-yl)methyl]-1-(2-methoxybenzoyl)-3-(oxan-4-yl)-1H-1,2,4-triazol-5-amine], the IC50 was no more than 0.1 µM. Consider `Clc1ccc(CNc2nc(C3CCOC3)n[nH]2)s1` (centres unmarked) [Entry 62, N-[(5-chlorothiophen-2-yl)methyl]-3-(oxolan-3-yl)-1H-1,2,4-triazol-5-amine], for which the IC50 is no less than 100 µM. The value for `COc1ccc(C(=O)n2nc(C3CCCO3)nc2NCc2ccc(Cl)s2)c(OC)c1` (centres unmarked) [Entry 37, N-[(5-chlorothiophen-2-yl)methyl]-1-(2,4-dimethoxybenzoyl)-3-(oxolan-2-yl)-1H-1,2,4-triazol-5-amine] was no more than 0.1 µM; that for `COc1ccccc1C(=O)n1nc(C2CCN(C(=O)OC(C)(C)C)CC2)nc1NCc1ccccc1` [Entry 76, tert-butyl 4-[5-(benzylamino)-1-(2-methoxybenzoyl)-1H-1,2,4-triazol-3-yl]piperidine-1-carboxylate] was no more than 0.1 µM; that for `COc1ccccc1C(=O)n1nc(C2=C(O)CCCC2)nc1NCc1ccccc1` [Entry 16, 2-[5-(benzylamino)-1-(2-methoxybenzoyl)-1H-1,2,4-triazol-3-yl]cyclohex-1-en-1-ol] was no less than 100 µM. As for `COc1ccccc1C(=O)n1nc(C2CN(S(=O)(=O)C(C)C)C2)nc1NCc1ccc(Cl)s1` [Entry 46, N-[(5-chlorothiophen-2-yl)methyl]-1-(2-methoxybenzoyl)-3-[1-(propane-2-sulfonyl)azetidin-3-yl]-1H-1,2,4-triazol-5-amine], the figure is no more than 0.1 µM; as for `COc1ccccc1C(=O)n1nc(C2CCN(C(=O)N3CCCC3)CC2)nc1NCc1ccc(Cl)s1` [Entry 48, N-[(5-chlorothiophen-2-yl)methyl]-1-(2-methoxybenzoyl)-3-[1-(pyrrolidine-1-carbonyl)piperidin-4-yl]-1H-1,2,4-triazol-5-amine], no more than 0.1 µM; as for `Nc1nc(C2CCOC2)n[nH]1` (centres unmarked) [Entry 26, 3-(oxolan-3-yl)-1H-1,2,4-triazol-5-amine], no less than 100 µM. `COc1ccccc1C(=O)n1nc(C2CN(S(=O)(=O)c3ccccc3)C2)nc1NCc1ccc(Cl)s1` [Entry 27, 3-[1-(benzenesulfonyl)azetidin-3-yl]-N-[(5-chlorothiophen-2-yl)methyl]-1-(2-methoxybenzoyl)-1H-1,2,4-triazol-5-amine] had an IC50 of no more than 0.1 µM. Regarding `O=C(C1CCCCC1)n1nc(C2CNC2)nc1NCc1ccc(Cl)s1` [Entry 22, 3-(azetidin-3-yl)-N-[(5-chlorothiophen-2-yl)methyl]-1-cyclohexanecarbonyl-1H-1,2,4-triazol-5-amine; trifluoroacetic acid], the IC50 lay in the range of 0.1 to 1 µM. As for `O=C(c1cccc2c1OCCO2)n1nc(C2CCNCC2)nc1NCc1ccc(Cl)s1` [Entry 35, N-[(5-chlorothiophen-2-yl)methyl]-1-(2,3-dihydro-1,4-benzodioxine-5-carbonyl)-3-(piperidin-4-yl)-1H-1,2,4-triazol-5-amine hydrochloride], the figure is no more than 0.1 µM.

`COc1ccccc1C(=O)n1nc(C2CCN(S(=O)(=O)C(C)C)CC2)nc1NCc1ccc(Cl)s1` [Entry 47, N-[(5-chlorothiophen-2-yl)methyl]-1-(2-methoxybenzoyl)-3-[1-(propane-2-sulfonyl)piperidin-4-yl]-1H-1,2,4-triazol-5-amine] gave an IC50 of no more than 0.1 µM. The value for `COc1ccccc1C(=O)n1nc(C2CCN(C(=O)N(C)C)CC2)nc1NCc1ccc(Cl)s1` [Entry 30, 4-(5-[(5-chlorothiophen-2-yl)methyl]amino-1-(2-methoxybenzoyl)-1H-1,2,4-triazol-3-yl)-N,N-dimethylpiperidine-1-carboxamide] was no more than 0.1 µM; that for `CC(C)(C)OC(=O)N1CCCC1c1n[nH]c(N)n1` (centres unmarked) [Entry 67, tert-butyl 2-(5-amino-1H-1,2,4-triazol-3-yl)pyrrolidine-1-carboxylate] was no less than 100 µM; that for `CC(C)(C)OC(=O)N1CCC(c2n[nH]c(N)n2)CC1` [Entry 73, tert-butyl 4-(5-amino-1H-1,2,4-triazol-3-yl)piperidine-1-carboxylate] was no less than 100 µM.

`COc1ccccc1C(=O)n1nc(C2CCCCC2OC)nc1NCc1ccc(Cl)s1` (centres unmarked) [Entry 39, N-[(5-chlorothiophen-2-yl)methyl]-1-(2-methoxybenzoyl)-3-(2-methoxycyclohexyl)-1H-1,2,4-triazol-5-amine] displayed an IC50 of no more than 0.1 µM.
